These results are taken from patent US20250019385A1, “SPIROCYCLIC ANNULATED 2-AMINO-3-CYANO THIOPHENES AND DERIVATIVES FOR THE TREATMENT OF CANCER” (Boehringer Ingelheim International GmbH, priority 2023, published 2025).

As usually defined, the IC50 is the concentration that gives 50% inhibition. A lower IC50 goes with inhibition by little substance.

The test system of the first experiment is SK-CO-1 cells. Nature of the experiment: SK-CO-1 CTG proliferation assay (120 h) (CRC, G12V). Type of experiment: cell-based. The conditions noted are these: Homo sapiens. The protocol:
(§1) SK—CO-1 cells (ATCC HTB-39) are dispensed into black 384-well plates, flat and clear bottom (Greiner, PNr. 781091) at a density of 500 cells per well in 60 μl EMEM (Sigma M5650)+10% FCS (fetal calf serum, HyClone, SH30084.03). Cells are incubated overnight at 37° C. in a humidified tissue culture incubator at 5% CO2. Compounds (10 mM stock in DMSO) are added at logarithmic dose series using the ECHO acoustic liquid handler system (Beckman Coulter), normalizing for added DMSO and including DMSO controls. All compound treatments are performed in technical duplicates. For the TO time point measurement, untreated cells are analyzed at the time of compound addition. Plates are incubated for 120 h, and cell viability is measured using CellTiter-Glo luminescent cell viability reagent (Promega product code G7570). Viability (stated as percent of control) is defined as relative luminescence units RLU of each well divided by the RLU of cells in DMSO controls. IC50 values are determined from viability measurements by non-linear regression using a four-parameter model.
(§2) IC50 values of representative compounds according to the invention measured with these assays in the indicated cell lines are presented in Table 46.
In turn, `C[C@H](Oc1nc(-c2onc3c2CCC[C@@]32CCCc3sc(N)c(C#N)c32)nc2c1N(C)C(=O)CN2[C@@H]1CCOC1)[C@@H]1CCCN1C` [I-37] yielded an IC50 of 323 nM.
For the molecule `CO[C@@H]1C[C@@H]([C@H](C)Oc2nc(-c3onc4c3CCC[C@@]43CCCc4sc(N)c(C#N)c43)nc3c2n(C)c(=O)n3[C@@H]2CCCOC2)N(C)C1` [I-14], inhibition was half-maximal at 7 nM (IC50).
On the same count and under the same terms, the same measure for `C[C@H](Oc1nc(-c2noc3c2CCC[C@@]32CCCc3sc(N)c(C#N)c32)nc2c1CN(c1ncccn1)[C@@]21CCOC1)[C@@H]1CCCN1C` [II-7b]: 154 nM; for `C[C@H](Oc1nc(-c2noc3c2CCC[C@@]32CCCc3sc(N)c(C#N)c32)nc2c1cnn2[C@@H]1CCOC1)[C@@H]1CCCN1C` [II-4]: 10 nM.
Same read-out and setting: with `COCCn1c(=O)n(C)c2c(O[C@@H](C)[C@@H]3CCCN3C)nc(-c3onc4c3CCC[C@@]43CCCc4sc(N)c(C#N)c43)nc21` [I-7] the figure was 190 nM.
`C[C@H](Oc1nc(-c2noc3c2CCC[C@@]32CCCc3sc(N)c(C#N)c32)nc2c1COC[C@@]21CCOC1)[C@@H]1CCCN1C` [II-9a] registered an IC50 of 101 nM.
The molecule `CO[C@H]1C[C@@H](n2c(=O)n(C)c3c(O[C@@H](C)[C@@H]4CCCN4C)nc(-c4onc5c4CCC[C@@]54CCCc5sc(N)c(C#N)c54)nc32)C1` [I-31] displayed a half-maximal inhibitory concentration (IC50) of 94 nM.
Molecule `CO[C@@H]1C[C@@H]([C@H](C)Oc2nc(-c3noc4c3CCC[C@@]43CCCc4sc(N)c(C#N)c43)nc3c2COC[C@]32CCOC2)N(C)C1` [II-11] yielded a 50% inhibitory concentration (IC50) of 4 nM.
In turn, `C[C@H](Oc1nc(-c2noc3c2CCC[C@@]32CCCc3sc(N)c(C#N)c32)nc2c1CCC21CCOC1)[C@@H]1CCCN1C` (stereo partly shown) [II-18] came in with a concentration for half-maximal inhibition (IC50) of 79 nM.
For the molecule `C[C@H](Oc1nc(-c2noc3c2CCC[C@@]32CCCc3sc(N)c(C#N)c32)nc2c1CN(c1ncccn1)[C@]21CCOC1)[C@@H]1CCCN1C` [II-7a], the IC50 was 32 nM.

The next experiment has as its system NCI-H727 cells. Briefly: NCI-H727 CTG proliferation assay (120 h) (lung cancer, G12V). Type of experiment: cell-based. The settings on record: Homo sapiens. On the procedure:
as §1, with “NCI-H727” for “SK—CO-1”, “No. CRL-5815)” for “HTB-39)”, “RPMI ATCC-Formulation (PAN P04-18047)+10%” for “EMEM (Sigma M5650)+10%”
as §2
`C[C@H](Oc1nc(-c2onc3c2CCC[C@@]32CCCc3sc(N)c(C#N)c32)nc2c1N(C)C(=O)CN2[C@@H]1CCOC1)[C@@H]1CCCN1C` [I-37] registered an IC50 of 181 nM.
On the same count and under the same terms, the same measure for `CO[C@@H]1C[C@@H]([C@H](C)Oc2nc(-c3onc4c3CCC[C@@]43CCCc4sc(N)c(C#N)c43)nc3c2n(C)c(=O)n3[C@@H]2CCCOC2)N(C)C1` [I-14]: 6 nM.
Same read-out and setting: with `C[C@H](Oc1nc(-c2noc3c2CCC[C@@]32CCCc3sc(N)c(C#N)c32)nc2c1cnn2[C@@H]1CCOC1)[C@@H]1CCCN1C` [II-4] the figure was 12 nM; with `COCCn1c(=O)n(C)c2c(O[C@@H](C)[C@@H]3CCCN3C)nc(-c3onc4c3CCC[C@@]43CCCc4sc(N)c(C#N)c43)nc21` [I-7], 348 nM; with `C[C@H](Oc1nc(-c2noc3c2CCC[C@@]32CCCc3sc(N)c(C#N)c32)nc2c1COC[C@@]21CCOC1)[C@@H]1CCCN1C` [II-9a], 22 nM.
Still for that read-out and setting: with `CO[C@H]1C[C@@H](n2c(=O)n(C)c3c(O[C@@H](C)[C@@H]4CCCN4C)nc(-c4onc5c4CCC[C@@]54CCCc5sc(N)c(C#N)c54)nc32)C1` [I-31] the figure was 38 nM; with `CO[C@@H]1C[C@@H]([C@H](C)Oc2nc(-c3noc4c3CCC[C@@]43CCCc4sc(N)c(C#N)c43)nc3c2COC[C@]32CCOC2)N(C)C1` [II-11], 1 nM.

In the next experiment the test system is Ba/F3 cells KRAS G12D. Nature of the experiment: Ba/F3 proliferation assay (KRAS G12D). The conditions noted are these: Mus musculus, BaF3, 72 h, AlamarBlue viability. The format is cell-based. On the procedure:
Ba/F3 cells are ordered from DSMZ (ACC300, Lot17) and grown in RPMI-1640 (ATCC 30-2001)+10% FCS+10 ng/mL IL-3 at 37° C. in 5% […] atmosphere. Plasmids containing KRASG12 mutants (i.e. […], G12C, G12V) are obtained from GeneScript. To generate KRASG12-dependent Ba/F3 models, Ba/F3 cells are transduced with retroviruses containing vectors that harbor KRASG12 isoforms. Platinum-E cells (Cell Biolabs) are used for retrovirus packaging. Retrovirus is added to Ba/F3 cells. To ensure infection, 4 μg/mL polybrene is added and cells are spinfected. Infection efficiency is confirmed by measuring GFP-positive cells using a cell analyzer. Cells with an infection efficiency of 10% to 20% are further cultivated and puromycin selection with 1 μg/mL is initiated. As a control, parental Ba/F3 cells are used to show selection status. Selection is considered successful when parental Ba/F3 cells cultures died. To evaluate the transforming potential of KRASG12 mutations, the growth medium is no longer supplemented with IL-3. Ba/F3 cells harboring the empty vector are used as a control. Approximately ten days before conducting the experiments, puromycin is left out.
For proliferation assays, Ba/F3 cells are seeded into 384-well plates at 1.5×1 (M cells/60 μL in growth media (RPMI-1640+10% FCS). Compounds (10 mM stock in DMSO) are added at logarithmic dose series using the ECHO acoustic liquid handler system (Beckman Coulter), normalizing for added DMSO and including DMSO controls. All compound treatments are performed in technical duplicates. For the TO time point measurement, untreated cells are analyzed at the time of compound addition. Treated cells are incubated for 72 h at 37° C. with 5% CO2 and cell viability is measured in the PerkinElmer Envision Multimode Reader using AlamarBlue™ (ThermoFisher) viability stain. Viability (stated as percent of control) is defined as relative fluorescence units RFU of each well divided by the RFU of cells in DMSO controls. IC50 values are determined from viability measurements by non-linear regression using a four-parameter model.
Background: The colour change of resazurin is a common sign of viable cells or microbes.
`C[C@H](Oc1nc(-c2onc3c2CCC[C@@]32CCCc3sc(N)c(C#N)c32)nc2c1N(C)C(=O)CN2[C@@H]1CCOC1)[C@@H]1CCCN1C` [I-37] gave an IC50 of 305 nM.
Still for that read-out and setting: the same measure for `C[C@H](Oc1nc(-c2onc3c2CCC[C@@]32CCCc3sc(N)c(C#N)c32)nc2c1n(C)c(=O)n2[C@H]1CO[C@@H](C)C1)[C@@H]1CC[C@H](C)N1C` [I-50]: 4 nM; for `CO[C@@H]1C[C@@H]([C@H](C)Oc2nc(-c3onc4c3CCC[C@@]43CCCc4sc(N)c(C#N)c43)nc3c2n(C)c(=O)n3[C@@H]2CCCOC2)N(C)C1` [I-14]: 10 nM.
For `C[C@H](Oc1nc(-c2noc3c2CCC[C@@]32CCCc3sc(N)c(C#N)c32)nc2c1CN(c1ncccn1)[C@@]21CCOC1)[C@@H]1CCCN1C` [II-7b], half-maximal inhibition (IC50) was put at 127 nM.
`C[C@H](Oc1nc(-c2noc3c2CCC[C@@]32CCCc3sc(N)c(C#N)c32)nc2c1cnn2[C@@H]1CCOC1)[C@@H]1CCCN1C` [II-4] gave an IC50 of 16 nM.
Still for that read-out and setting: the same measure for `COCCn1c(=O)n(C)c2c(O[C@@H](C)[C@@H]3CCCN3C)nc(-c3onc4c3CCC[C@@]43CCCc4sc(N)c(C#N)c43)nc21` [I-7]: 204 nM.
Same read-out and setting: with `C[C@H](Oc1nc(-c2noc3c2CCC[C@@]32CCCc3sc(N)c(C#N)c32)nc2c1COC[C@@]21CCOC1)[C@@H]1CCCN1C` [II-9a] the figure was 59 nM; with `CO[C@H]1C[C@@H](n2c(=O)n(C)c3c(O[C@@H](C)[C@@H]4CCCN4C)nc(-c4onc5c4CCC[C@@]54CCCc5sc(N)c(C#N)c54)nc32)C1` [I-31], 37 nM; with `CO[C@@H]1C[C@@H]([C@H](C)Oc2nc(-c3noc4c3CCC[C@@]43CCCc4sc(N)c(C#N)c43)nc3c2COC[C@]32CCOC2)N(C)C1` [II-11], 4 nM.
Still for that read-out and setting: the same measure for `C[C@H](Oc1nc(-c2noc3c2CCC[C@@]32CCCc3sc(N)c(C#N)c32)nc2c1CCC21CCOC1)[C@@H]1CCCN1C` (stereo partly shown) [II-18]: 20 nM.
Molecule `CO[C@H]1CCN(C)[C@@H]1[C@H](C)Oc1nc(-c2onc3c2CCC[C@@]32CCCc3sc(N)c(C#N)c32)nc2c1n(C)c(=O)n2[C@H]1COC[C@@H](C)C1` [I-51] registered an IC50 of 26 nM.
`C[C@H](Oc1nc(-c2onc3c2CCC[C@@]32CCCc3sc(N)c(C#N)c32)nc2c1n(C)c(=O)n2[C@H]1CO[C@@H](C)C1)[C@@H]1CCCN1C` [I-47] had an IC50 of 1 nM.
`CO[C@@H]1C[C@@H]([C@H](C)Oc2nc(-c3onc4c3CCC[C@@]43CCCc4sc(N)c(C#N)c43)nc3c2n(C)c(=O)n3[C@H]2COC[C@@H](C)C2)N(C)C1` [I-52]: the midpoint of inhibition, the IC50, lay at 28 nM.
Same read-out and setting: the same measure for `C[C@H](Oc1nc(-c2noc3c2CCC[C@@]32CCCc3sc(N)c(C#N)c32)nc2c1CN(c1ncccn1)[C@]21CCOC1)[C@@H]1CCCN1C` [II-7a]: 28 nM.
